The values that follow come from US7618656B2, “Method for use of lanthanum carbonate pharmaceutical compositions” (Shire International Licensing B.V., priority 2006, dated 2009).

The nature of this data set: Attempted conversion of polymorph (II) to polymorph (I) by heating in water. It is filed as physicochemical. Particulars: 18 days at 90-100° C. An excerpt: An attempt was made to convert polymorph (II) to polymorph (I) by heating in water for an extended period of time.

For the compound `O=C([O-])[O-].[La+3].[OH-]` [polymorph (II), lanthanum hydroxycarbonate], the “conversion of polymorph (II) to polymorph (I) (polymorph stability)” value is “No evidence of conversion”.
